ChEMBL document CHEMBL1156829 (Proc Natl Acad Sci U S A, 2008)

Tests used:
Plasmodium falciparum [1] = test: NOVARTIS: Inhibition of Plasmodium falciparum W2 (drug-resistant) proliferation in erythrocyte-based infection assay; assay type: functional, organism-based; details: Plasmodium falciparum, W2; read-out: EC50
Plasmodium falciparum [2] = test: NOVARTIS: Inhibition of Plasmodium falciparum 3D7 (drug-susceptible) proliferation in erythrocyte-based infection assay; assay type: functional, organism-based; details: Plasmodium falciparum, 3D7
[3] = NOVARTIS: Cytotoxicity against human hepatocellular carcinoma cell line (Huh7); assay type: toxicity, cell-based, Huh-7; details: Huh7 cells (hepatocellular carcinoma cell line)

CCN1/C(=C/c2sc3ccc(Br)cc3[n+]2CC)C=Cc2ccccc21
EC50 (Plasmodium falciparum [1]): 1.08 µM | EC50 (Plasmodium falciparum [2]): 0.645 µM | CC50 [3]: > 10 µM

COc1ccc(C=NNc2nc(O)cc(-c3ccccc3)n2)cc1OC
EC50 (Plasmodium falciparum [1]): > 1.1 µM | EC50 (Plasmodium falciparum [2]): 0.632 µM | CC50 [3]: > 10 µM

COC(=O)c1ccc(C(=O)Nc2ccc(-c3nc4cc(NC(=O)c5ccc(C(=O)OC)cc5)ccc4[nH]3)cc2)cc1
EC50 (Plasmodium falciparum [1]): 1.09 µM | EC50 (Plasmodium falciparum [2]): 0.855 µM | CC50 [3]: > 10 µM

COc1ccc(C2=C(c3ccc(OC)cc3)C3(c4ccccc4)C(=O)C2(c2ccccc2)C2C(=O)N(c4ccccc4)C(=O)C23)cc1 (configuration not stated)
EC50 (Plasmodium falciparum [1]): > 1.13 µM | EC50 (Plasmodium falciparum [2]): 1.4 µM | CC50 [3]: > 10 µM

CC1CC2CCC(O2)C(C)C(=O)O[C@H](C)CC2CCC(O2)C(C)C(=O)OC(C)CC2CCC(O2)C(C)C(=O)O[C@H](C)CC2CCC(O2)C(C)C(=O)O1 (some centres not stated)
EC50 (Plasmodium falciparum [1]): 0.699 µM | EC50 (Plasmodium falciparum [2]): 0.645 µM | CC50 [3]: > 6.25 µM

Cc1ccc(CC(=O)Nc2ccc(I)cc2)cc1
EC50 (Plasmodium falciparum [1]): > 11.2 µM | EC50 (Plasmodium falciparum [2]): > 11.2 µM | CC50 [3]: > 100 µM

CC(C)OC(=O)NC(Nc1ccccc1)C(Cl)(Cl)Cl (configuration not stated)
EC50 (Plasmodium falciparum [1]): > 1.08 µM | EC50 (Plasmodium falciparum [2]): > 1.08 µM | CC50 [3]: > 10 µM

COc1ccc(Cn2c(=S)[nH]c3ccsc3c2=O)cc1
EC50 (Plasmodium falciparum [1]): 1.1 µM | EC50 (Plasmodium falciparum [2]): > 1.43 µM | CC50 [3]: > 10 µM

COc1ccc(CC(=O)Nc2sc3c(c2C(=O)Nc2cccc4ccccc24)CCCC3)cc1
EC50 (Plasmodium falciparum [1]): 1.13 µM | EC50 (Plasmodium falciparum [2]): > 1.25 µM | CC50 [3]: > 10 µM

CCC(C)(C)c1ccc(Oc2ccc(NC(=O)c3ccc([N+](=O)[O-])o3)cc2)cc1
EC50 (Plasmodium falciparum [1]): 6.51 µM | EC50 (Plasmodium falciparum [2]): 7.67 µM | CC50 [3]: 57.6 µM

COc1ccc(-n2nc(C(=O)NCC(=O)Nc3nc4ccccc4s3)c3ccccc3c2=O)cc1Cl
EC50 (Plasmodium falciparum [1]): > 1.13 µM | EC50 (Plasmodium falciparum [2]): > 1.25 µM | CC50 [3]: > 10 µM

Cc1cc(C)nc(SCc2cc(=O)c(OC(=O)c3ccccc3Br)co2)n1
EC50 (Plasmodium falciparum [1]): > 11.2 µM | EC50 (Plasmodium falciparum [2]): > 11.2 µM | CC50 [3]: > 100 µM

O=C(NN=Cc1ccc(O)c(O)c1)/C(=C/c1ccccc1)NC(=O)c1ccccc1
EC50 (Plasmodium falciparum [1]): > 1.11 µM | EC50 (Plasmodium falciparum [2]): > 1.25 µM | CC50 [3]: > 10 µM

C[n+]1c(C=Cc2ccc(F)cc2)ccc2ccccc21
EC50 (Plasmodium falciparum [1]): 11.1 µM | EC50 (Plasmodium falciparum [2]): 8.11 µM | CC50 [3]: > 100 µM

O=C(NNC(=O)c1cccc(F)c1)C(=O)N1CCOCC1
EC50 (Plasmodium falciparum [1]): > 1.11 µM | EC50 (Plasmodium falciparum [2]): > 1.25 µM | CC50 [3]: > 10 µM

c1ccc(-c2cc(N3CCc4ccccc4C3)nc(-c3ccccn3)n2)nc1
EC50 (Plasmodium falciparum [1]): 1.11 µM | EC50 (Plasmodium falciparum [2]): 0.251 µM | CC50 [3]: > 10 µM

COc1ccc(C2c3[nH]c4ccccc4c3C[C@@H]3C(=O)N(CCC(C)C)CC(=O)N23)cc1 (some centres not stated)
EC50 (Plasmodium falciparum [1]): 1.11 µM | EC50 (Plasmodium falciparum [2]): > 1.25 µM | CC50 [3]: > 10 µM

CN(C)c1ccc(/C=C2\C(=O)NC(=O)N(Cc3ccccc3Cl)C2=O)cc1
EC50 (Plasmodium falciparum [1]): 1.11 µM | EC50 (Plasmodium falciparum [2]): > 1.25 µM | CC50 [3]: > 10 µM

CC[n+]1c(C=C2C=CN(c3ccc(Cl)cc3)C=C2)ccc2ccccc21
EC50 (Plasmodium falciparum [1]): 1.09 µM | EC50 (Plasmodium falciparum [2]): 0.725 µM | CC50 [3]: > 10 µM

CCC(C)NC(=O)CSc1nnc(-c2cccnc2)n1-c1ccc(Cl)cc1 (configuration not stated)
EC50 (Plasmodium falciparum [1]): > 1.09 µM | EC50 (Plasmodium falciparum [2]): > 1.52 µM | CC50 [3]: > 10 µM

CN(CCCNc1ccnc2cc(Cl)ccc12)C(=O)c1cccc(C(F)(F)F)c1
EC50 (Plasmodium falciparum [1]): 0.278 µM | EC50 (Plasmodium falciparum [2]): 0.0851 µM | CC50 [3]: > 2.55 µM

Cc1ccc(CNC(=O)c2cc(=O)[nH]c3ccc(S(=O)(=O)N4CCOCC4)cc23)cc1
EC50 (Plasmodium falciparum [1]): > 1.09 µM | EC50 (Plasmodium falciparum [2]): 1.43 µM | CC50 [3]: > 10 µM

COc1cc(NC(C)CCCN(Cc2ccc(OC)c(OC)c2)C(=O)CC(C)CC(C)(C)C)c2ncccc2c1 (configuration not stated)
EC50 (Plasmodium falciparum [1]): 0.64 µM | EC50 (Plasmodium falciparum [2]): 1.04 µM | CC50 [3]: 5.89 µM

C/C=C/C(C(=O)NCCCC)N1C(=O)c2cc(NC(C)=O)ccc2NC(=O)[C@@H]1CCC(=O)O (some centres not stated)
EC50 (Plasmodium falciparum [1]): 0.0499 µM | EC50 (Plasmodium falciparum [2]): > 1.5 µM | CC50 [3]: 0.442 µM

Cc1ccc2cc3cc(C(=O)NC(C)C)sc3nc2c1
EC50 (Plasmodium falciparum [1]): 1.12 µM | EC50 (Plasmodium falciparum [2]): 0.989 µM | CC50 [3]: > 10 µM

COc1ccc(-c2cn(-c3ccc(OC)cc3)c(SCC(=O)Nc3ccccc3)n2)cc1
EC50 (Plasmodium falciparum [1]): > 11.2 µM | EC50 (Plasmodium falciparum [2]): > 11.2 µM | CC50 [3]: > 100 µM

COC(=O)c1ccccc1NC(=O)CSc1nc2ccsc2c(=O)n1CCN1CCCC1
EC50 (Plasmodium falciparum [1]): > 11.2 µM | EC50 (Plasmodium falciparum [2]): > 11.2 µM | CC50 [3]: > 100 µM

COc1ccc(OC)c(NC(=O)CSc2nc(NCc3ccc(Cl)cc3)c3ccccc3n2)c1
EC50 (Plasmodium falciparum [1]): > 11.2 µM | EC50 (Plasmodium falciparum [2]): > 11.2 µM | CC50 [3]: > 100 µM

COc1ccc(/C=C/C(=O)NC(=O)c2ccccc2O)cc1OC
EC50 (Plasmodium falciparum [1]): 1.13 µM | EC50 (Plasmodium falciparum [2]): 1.08 µM | CC50 [3]: > 10 µM

COc1cc(/C=C/c2nc(O)nc(O)c2[N+](=O)[O-])cc(Br)c1O
EC50 (Plasmodium falciparum [1]): > 0.987 µM | EC50 (Plasmodium falciparum [2]): > 1.25 µM | CC50 [3]: > 9.11 µM

CCCCn1c(NN=C2C(=O)Nc3ccccc32)nc2c1c(=O)[nH]c(=O)n2C
EC50 (Plasmodium falciparum [1]): 1.13 µM | EC50 (Plasmodium falciparum [2]): 1.59 µM | CC50 [3]: > 10 µM

c1ccc(Cc2nc(NCc3ccc4c(c3)OCO4)c3c4c(sc3n2)CCCC4)cc1
EC50 (Plasmodium falciparum [1]): > 1.13 µM | EC50 (Plasmodium falciparum [2]): > 1.25 µM | CC50 [3]: > 10 µM

CCCCCCn1c2c(c(=N)c3ccccc31)CCC2
EC50 (Plasmodium falciparum [1]): > 1.12 µM | EC50 (Plasmodium falciparum [2]): 0.681 µM | CC50 [3]: > 10 µM

COc1ccc2c(c1OC)C(=O)N(c1ncc(C)s1)C2
EC50 (Plasmodium falciparum [1]): > 1.08 µM | EC50 (Plasmodium falciparum [2]): > 1.25 µM | CC50 [3]: > 10 µM
